The values below come from patent US20060166869A1, “Novel use of lipopeptide preparations” (priority 2002, published 2006).

Where two headings read alike, the source gives them in different places.

For experiment [1], the target named is T1, SIV tilted peptide (Simian immunodeficiency virus, UniProt P05885).
T1 construct: SIV; 12; 528-539; GVFVLGFLGFLA; purchased SYNT:EM (Nimes, France)
Format: biochemical. The following applies: for concentration at which inhibition is complete: Tris NaCl buffer pH 7.4, SIV tilted peptide 0.966 μM (FIG. 6); for inhibition of LUV fusion: Tris NaCl buffer pH 7.4, SIV tilted peptide 0.966 μM; for concentration at which complete (or nearly complete) inhibition of fusion is reached: Tris NaCl buffer pH 8.0, SIV tilted peptide 0.966 μM (FIG. 2).

Experiment [2] concerns the target T2, Bordetella pertussis tilted peptide (Bordetella pertussis, UniProt P12255).
T2 construct: purchased EPYTOP (Nimes, France)
The experiment is classed as biochemical. The following applies: charged LUV, Tris NaCl buffer pH 7.4, Bordetella pertussis tilted peptide 2.42 μM (FIG. 8). The text has this: A number of different systems have been developed to assay peptide membrane fusion activity. Large unilamellar vesicles (LUV) are appropriate model for biological membrane fusion. Their curvature and their stability mimic suitably the cell membrane. Several different techniques for detecting and quantifying vesicle fusion are in common use. These include fluorescence assays that monitor fusion-induced lipid mixing between the two lipid bilayers of the membranes by observing the increase of fluorescence of a probe included in a part of vesicles in mixture. The dilution of the probe by fusion of the two bilayers from the two categories of vesicles causes a decrease of the self-quenching phenomenon leading to an increase of the fluorescence intensity.
Two sets of LUV are prepared: LUV with fluorescent probe (labelled LUV) and free probe LUV (unlabelled LUV). The probe used is the octadecyl rhodamine chloride (R18) (Molecular probes, Eugene, Oreg.).
The first step is the preparation of large multilamellar vesicles. For this, a mixing of different lipids is operated in a round bottomed Büchi flask. […]
Vesicles fusion is determined by measuring the fluorescence intensity change resulting from the fluorescence of the R18 probe. Fluorescence is monitored using fluorimeter LS-50B Perkin-Elmer (Norwalk, Conn. USA). […]

Where [3] appears, read: uncharged LUV, Tris buffer without NaCl pH 8.0, SIV tilted peptide 0.966 μM (FIG. 5).

As to “cyclic fengycin A with a β-hydroxyled fatty acid chain containing 16 carbon atoms [FAC16]”, in experiment [1] (charged LUV), the “concentration at which inhibition is complete” value is approximately 2.4 µM and the “concentration at which complete (or nearly complete) inhibition of fusion is reached” value is approximately 1 µM. The “inhibition of LUV fusion” value in experiment [1] (charged LUV, agent at 0.8 μM (FIG. 6)) is given as 90%. The “concentration at which the fusogenic effect is inhibited completely” value in experiment [2] was approximately 1.61 µM.

In the case of “cyclic surfactin with a linear β-hydroxyled fatty acid chain containing 14 carbon atoms [SC14]”, in experiment [1] (charged LUV), the “concentration at which complete (or nearly complete) inhibition of fusion is reached” value was approximately 2.4 µM.

Turning to “cyclic surfactin with an iso-branched β-hydroxyled fatty acid chain containing 13 carbon atoms [SC13]”, the “concentration at which complete (or nearly complete) inhibition of fusion is reached” value in experiment [1] (charged LUV) is more than 4.8 µM.

Regarding “cyclic surfactin with an iso-branched β-hydroxyled fatty acid chain containing 15 carbon atoms [SC15]”, in experiment [1] (charged LUV), the “concentration at which inhibition is complete” value is approximately 2.4 µM and the “concentration at which complete (or nearly complete) inhibition of fusion is reached” value was approximately 2.4 µM. In addition, the “concentration at which fusion is completely inhibited” value in experiment [1] (uncharged LUV, Tris NaCl buffer pH 8.0, SIV tilted peptide 0.966 μM (FIG. 4)) is approximately 3.2 µM. Further, in experiment [1] (setting [3]), the “antifusogenic activity in absence of NaCl compared with Tris NaCl buffer” value is “slightly improved” and the “concentration at which complete inhibition is reached” value is approximately 2 µM. The “concentration at which the fusogenic effect is inhibited completely” value in experiment [2] was approximately 4.8 µM.

“linear surfactin, with an linear β-hydroxylated fatty acid chain containing 14 carbon atoms and with a linear peptide part [LSC14]”: in experiment [1] (charged LUV, agent at concentration near 2 μM (FIG. 6)), the “inhibition of LUV fusion” value is given as 60%.

As to “lysophosphatidylcholine [reference compound]”, the “effect on the fusion percentage” value in experiment [1] (charged LUV, Tris NaCl buffer pH 8.0, agent at concentrations below 1 μM (FIG. 2)) is “no effect at all”. In experiment [1] (charged LUV, Tris NaCl buffer pH 8.0, agent at concentrations between 1 and 2 μM (FIG. 2)), this substance came in with an antifusogenic activity of less than 50%.
